Active and inactive are the calls of the source.
Tests used:
[1] = target: Acyl-homoserine lactone acylase PvdQ (Pseudomonas aeruginosa (strain LESB58), UniProt Q9I194); test: P. aeruginosa PvdQ acylase inhibitors, dose response, biochemical, fluorescence, plate reader and imaging, cherry-picks (AID 493231)
[2] = target: Neurotensin receptor type 1 (Homo sapiens, UniProt P30989); type: functional;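 also: Image-based confirmatory dose-response assay measuring agonist activity at NTR1; NTR1-expressing U2OS osteosarcoma cells imaged for beta-arrestin GFP spot formation; agonist potency where compounds increase beta-arrestin recruitment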
[3] = target: T1, Bcl-2-like protein 10 (Homo sapiens, UniProt Q9HD36); test: displacers of TR3 peptide from Bcl-B, primary screen, selectivity assay for Bfl-1 inhibitor project, biochemical, fluorescence polarization, FITC-TR3 peptide (AID 748);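 also: fluorescence polarization from a fluorescein-labelled TR3 peptide binding purified Bcl-B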
T1 sequence (Q9HD36 whole entry): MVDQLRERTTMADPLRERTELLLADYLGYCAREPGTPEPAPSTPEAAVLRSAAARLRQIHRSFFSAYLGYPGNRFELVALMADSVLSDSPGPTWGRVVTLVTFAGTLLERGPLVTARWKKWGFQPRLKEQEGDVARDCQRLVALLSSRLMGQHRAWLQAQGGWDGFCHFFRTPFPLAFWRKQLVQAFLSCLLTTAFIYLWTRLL

[4] = target: Cyclin-dependent kinase 5/CDK5 activator 1 (Homo sapiens, UniProt Q00535); test: CDK5/p35 kinase inhibitors, dose response, biochemical, cherry-picked samples, set 2 (AID 504545)
[5] = target: Procathepsin L (Homo sapiens, UniProt P07711)
[6] = target: T2, Leucine aminopeptidase (Plasmodium falciparum 3D7, UniProt Q8IL11); test: P. falciparum M17LAP inhibitors, primary screen, biochemical, fluorogenic H-Leu-NHMec substrate, 1536-well (AID 1619); type: functional
T2 sequence (Q8IL11 whole entry): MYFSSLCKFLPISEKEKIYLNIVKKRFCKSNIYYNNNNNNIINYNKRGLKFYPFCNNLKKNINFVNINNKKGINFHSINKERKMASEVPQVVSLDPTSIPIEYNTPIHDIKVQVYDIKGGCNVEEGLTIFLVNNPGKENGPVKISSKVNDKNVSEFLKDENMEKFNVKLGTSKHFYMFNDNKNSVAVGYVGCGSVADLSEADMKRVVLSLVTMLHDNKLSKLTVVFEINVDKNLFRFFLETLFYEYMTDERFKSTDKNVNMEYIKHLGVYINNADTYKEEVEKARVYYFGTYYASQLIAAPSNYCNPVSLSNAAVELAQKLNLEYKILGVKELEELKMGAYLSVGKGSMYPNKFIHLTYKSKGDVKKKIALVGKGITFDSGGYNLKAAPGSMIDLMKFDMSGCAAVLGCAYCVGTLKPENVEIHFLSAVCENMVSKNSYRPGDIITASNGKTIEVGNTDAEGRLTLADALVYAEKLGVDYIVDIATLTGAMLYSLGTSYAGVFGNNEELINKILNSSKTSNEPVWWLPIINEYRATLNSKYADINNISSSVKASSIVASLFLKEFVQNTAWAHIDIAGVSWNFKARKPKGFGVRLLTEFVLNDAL

[7] = target: T3, Aspartyl aminopeptidase (Plasmodium falciparum 3D7, UniProt Q8I2J3)
T3 sequence (Q8I2J3 whole entry): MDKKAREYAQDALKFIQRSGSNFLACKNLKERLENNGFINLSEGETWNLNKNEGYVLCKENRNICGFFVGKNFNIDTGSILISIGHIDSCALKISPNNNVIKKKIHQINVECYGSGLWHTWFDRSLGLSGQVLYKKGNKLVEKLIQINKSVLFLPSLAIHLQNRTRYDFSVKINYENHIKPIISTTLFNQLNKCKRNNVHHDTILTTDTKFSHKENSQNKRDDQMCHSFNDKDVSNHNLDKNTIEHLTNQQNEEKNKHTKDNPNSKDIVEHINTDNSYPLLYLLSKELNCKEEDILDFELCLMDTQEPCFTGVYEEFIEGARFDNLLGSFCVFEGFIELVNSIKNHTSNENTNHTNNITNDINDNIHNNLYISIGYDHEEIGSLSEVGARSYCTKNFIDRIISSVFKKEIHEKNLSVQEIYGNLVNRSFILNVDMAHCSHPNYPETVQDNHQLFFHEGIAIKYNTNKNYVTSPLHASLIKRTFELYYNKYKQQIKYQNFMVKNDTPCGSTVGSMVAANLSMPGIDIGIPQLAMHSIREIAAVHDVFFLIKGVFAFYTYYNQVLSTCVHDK

[8] = target: Protein Rev (Human immunodeficiency virus type 1 group M subtype B (isolate HXB2)(HIV-1), UniProt P04618); test: inhibitors of Rev binding to RRE RNA, dose response, biochemical, fluorescence polarization, HIV-1 (AID 434976); set-up: species or system Human immunodeficiency virus 1
[9] = target: Female germline-specific tumor suppressor gld-1 (Caenorhabditis elegans, UniProt Q17339); test: inhibitors of GLD-1 binding to TGE RNA, dose response, biochemical, fluorescence polarization, C. elegans (AID 2802);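 also: fluorescence polarization of labeled TGE RNA bound by purified gld-1 protein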
[10] = target: T4, Polyadenylate-binding protein 1 (Homo sapiens, UniProt P11940); test: PABP1 MLLE–PAM2 binding inhibitor potency, dose response, biochemical, fluorescence polarization, FITC-PAM2 peptide (AID 602259); type: functional; details: read-out: IC50_Mean
[11] = target: T4, Polyadenylate-binding protein 1; test: PABP1 MLLE–PAM2 interaction inhibitors, dose response, miRNA deadenylation inhibitor project, biochemical, fluorescence polarization, Cy5-PAM2 peptide, secondary (AID 602260); type: functional; details: read-out: IC50_Mean
[12] = target: T5, DNA repair and recombination protein RAD54-like (Homo sapiens, UniProt Q92698); test: inhibitors of human RAD54 branch migration, confirmation, biochemical, fluorescence, cherry-picked samples, dose series (AID 651657); type: functional
T5 sequence (Q92698 whole entry): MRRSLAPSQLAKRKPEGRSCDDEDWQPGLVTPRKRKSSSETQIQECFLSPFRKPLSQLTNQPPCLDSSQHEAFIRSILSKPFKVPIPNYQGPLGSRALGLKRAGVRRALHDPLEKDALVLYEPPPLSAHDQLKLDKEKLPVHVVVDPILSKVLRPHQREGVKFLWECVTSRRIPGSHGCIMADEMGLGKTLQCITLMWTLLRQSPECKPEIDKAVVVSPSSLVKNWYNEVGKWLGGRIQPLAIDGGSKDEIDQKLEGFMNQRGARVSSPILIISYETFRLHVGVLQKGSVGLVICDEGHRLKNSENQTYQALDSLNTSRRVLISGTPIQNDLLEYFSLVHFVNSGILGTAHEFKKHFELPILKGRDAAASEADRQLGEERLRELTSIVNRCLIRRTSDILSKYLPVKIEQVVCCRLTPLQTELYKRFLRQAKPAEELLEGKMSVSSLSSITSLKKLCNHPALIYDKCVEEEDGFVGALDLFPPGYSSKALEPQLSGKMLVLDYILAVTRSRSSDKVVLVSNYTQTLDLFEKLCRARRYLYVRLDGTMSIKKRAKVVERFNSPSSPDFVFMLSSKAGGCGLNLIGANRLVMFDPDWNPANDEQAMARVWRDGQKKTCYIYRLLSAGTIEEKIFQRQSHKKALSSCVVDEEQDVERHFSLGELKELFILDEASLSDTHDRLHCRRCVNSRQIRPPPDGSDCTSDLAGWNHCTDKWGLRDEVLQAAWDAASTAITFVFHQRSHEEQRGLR

[13] = A cytotoxicity screen of small molecule inhibitors of the PhoP region in Salmonella typhi identified in the primary screen. [Related pubchem assays: 1850, 1864, 1985 ]; type: functional
[14] = target: Cytochrome P450 2C9 (Homo sapiens, UniProt P11712); details: Potency
[15] = target: DNA dC->dU-editing enzyme APOBEC-3G (Homo sapiens, UniProt Q9HC16); type: functional;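 also: Dose-response counterscreen measuring inhibition of APOBEC3G DNA deaminase activity, run while confirming APOBEC3A inhibitors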
[16] = target: Eukaryotic translation initiation factor 4H (Homo sapiens, UniProt Q15056); test: human eIF4H binding inhibitors, primary screen, translation initiation inhibitor project, biochemical, uHTS, fluorescence polarization (AID 2012)
[17] = target: T4, Polyadenylate-binding protein 1; test: PABP poly(A) RNA binding inhibitors, primary screen, biochemical, fluorescence polarization, uHTS (AID 2014)
[18] = target: DNA dC->dU-editing enzyme APOBEC-3A (Homo sapiens, UniProt P31941); test: Dose Response confirmation of small molecule APOBEC3A DNA Deaminase Inhibitors via a fluorescence-based single-stranded DNA deaminase assay. [Related pubchem assays (depositor defined):AID493011, AID493024]; type: functional
[19] = THP-1 cell cytotoxicity, dose response, cytotoxicity control for Vif-APOBEC3G degradation inhibitor project, THP-1 cells (AID 1117359); type: functional; details: Human immunodeficiency virus 1, THP-1
[20] = target: Protein Tat (Human immunodeficiency virus type 1 group M subtype B (isolate HXB2)(HIV-1), UniProt P04608); type: functional;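 also: tat binding to TAR RNA read out by fluorescence polarization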
Chain of Protein Tat (P04608 whole entry): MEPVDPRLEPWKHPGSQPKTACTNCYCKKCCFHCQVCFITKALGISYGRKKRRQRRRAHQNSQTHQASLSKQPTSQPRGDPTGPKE

T4 sequence (P11940 whole entry): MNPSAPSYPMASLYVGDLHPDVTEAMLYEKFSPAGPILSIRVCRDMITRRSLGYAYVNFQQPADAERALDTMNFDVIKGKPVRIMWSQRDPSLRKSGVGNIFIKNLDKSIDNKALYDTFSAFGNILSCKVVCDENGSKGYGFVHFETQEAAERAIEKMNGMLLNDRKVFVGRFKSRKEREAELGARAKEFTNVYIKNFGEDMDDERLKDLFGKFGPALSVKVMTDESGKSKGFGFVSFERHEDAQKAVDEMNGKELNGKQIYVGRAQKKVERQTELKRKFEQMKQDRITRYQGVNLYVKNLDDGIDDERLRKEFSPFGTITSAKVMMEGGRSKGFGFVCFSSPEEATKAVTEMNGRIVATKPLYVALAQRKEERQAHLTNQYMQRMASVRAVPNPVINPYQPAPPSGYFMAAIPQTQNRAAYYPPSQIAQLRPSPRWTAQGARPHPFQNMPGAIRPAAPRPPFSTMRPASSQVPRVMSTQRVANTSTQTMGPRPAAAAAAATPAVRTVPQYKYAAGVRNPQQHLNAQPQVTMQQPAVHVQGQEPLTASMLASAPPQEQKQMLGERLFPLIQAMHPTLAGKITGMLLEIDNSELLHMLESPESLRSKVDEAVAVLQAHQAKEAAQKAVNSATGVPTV
Chain of Female germline-specific tumor suppressor gld-1 (Q17339 whole entry): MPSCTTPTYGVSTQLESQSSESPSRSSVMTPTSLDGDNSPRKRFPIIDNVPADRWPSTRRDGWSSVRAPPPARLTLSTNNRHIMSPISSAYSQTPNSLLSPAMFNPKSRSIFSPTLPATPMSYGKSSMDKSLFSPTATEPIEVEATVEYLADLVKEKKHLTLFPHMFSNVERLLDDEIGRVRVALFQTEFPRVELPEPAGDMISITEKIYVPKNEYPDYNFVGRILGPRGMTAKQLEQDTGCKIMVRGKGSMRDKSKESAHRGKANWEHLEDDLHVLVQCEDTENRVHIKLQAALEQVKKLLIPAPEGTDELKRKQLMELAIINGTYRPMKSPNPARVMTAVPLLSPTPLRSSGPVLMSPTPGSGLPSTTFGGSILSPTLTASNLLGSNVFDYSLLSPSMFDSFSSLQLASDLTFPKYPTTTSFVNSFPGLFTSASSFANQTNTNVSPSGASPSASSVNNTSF
Chain of Cyclin-dependent kinase 5/CDK5 activator 1 (Q00535 whole entry): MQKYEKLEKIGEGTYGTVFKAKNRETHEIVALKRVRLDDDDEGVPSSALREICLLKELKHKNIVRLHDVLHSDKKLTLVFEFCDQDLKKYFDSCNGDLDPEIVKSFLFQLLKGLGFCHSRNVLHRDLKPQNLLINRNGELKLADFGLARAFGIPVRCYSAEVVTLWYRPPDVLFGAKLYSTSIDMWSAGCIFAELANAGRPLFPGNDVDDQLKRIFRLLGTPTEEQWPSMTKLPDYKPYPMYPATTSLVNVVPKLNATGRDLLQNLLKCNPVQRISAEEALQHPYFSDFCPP
Chain of Cyclin-dependent kinase 5/CDK5 activator 1 (Q15078 whole entry, further chain): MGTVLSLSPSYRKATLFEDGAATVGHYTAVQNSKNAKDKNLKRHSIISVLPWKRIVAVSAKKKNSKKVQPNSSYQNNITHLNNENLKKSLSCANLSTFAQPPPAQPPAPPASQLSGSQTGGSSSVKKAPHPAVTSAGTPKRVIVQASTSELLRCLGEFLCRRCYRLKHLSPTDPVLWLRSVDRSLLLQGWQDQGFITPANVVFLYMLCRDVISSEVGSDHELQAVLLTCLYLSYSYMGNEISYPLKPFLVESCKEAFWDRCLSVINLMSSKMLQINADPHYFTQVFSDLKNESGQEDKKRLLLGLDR
Chain of Protein Rev (P04618 whole entry): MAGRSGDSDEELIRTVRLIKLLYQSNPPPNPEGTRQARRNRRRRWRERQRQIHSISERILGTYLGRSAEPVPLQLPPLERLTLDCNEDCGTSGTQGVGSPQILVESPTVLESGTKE
Chain of Acyl-homoserine lactone acylase PvdQ (Q9I194 24-193 limits assumed): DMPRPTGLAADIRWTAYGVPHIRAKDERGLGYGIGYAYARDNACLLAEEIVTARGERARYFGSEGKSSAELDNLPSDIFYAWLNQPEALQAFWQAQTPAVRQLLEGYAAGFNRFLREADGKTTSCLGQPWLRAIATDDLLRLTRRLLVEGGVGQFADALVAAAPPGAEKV
Chain of Acyl-homoserine lactone acylase PvdQ (Q9I194 217-762 limits assumed): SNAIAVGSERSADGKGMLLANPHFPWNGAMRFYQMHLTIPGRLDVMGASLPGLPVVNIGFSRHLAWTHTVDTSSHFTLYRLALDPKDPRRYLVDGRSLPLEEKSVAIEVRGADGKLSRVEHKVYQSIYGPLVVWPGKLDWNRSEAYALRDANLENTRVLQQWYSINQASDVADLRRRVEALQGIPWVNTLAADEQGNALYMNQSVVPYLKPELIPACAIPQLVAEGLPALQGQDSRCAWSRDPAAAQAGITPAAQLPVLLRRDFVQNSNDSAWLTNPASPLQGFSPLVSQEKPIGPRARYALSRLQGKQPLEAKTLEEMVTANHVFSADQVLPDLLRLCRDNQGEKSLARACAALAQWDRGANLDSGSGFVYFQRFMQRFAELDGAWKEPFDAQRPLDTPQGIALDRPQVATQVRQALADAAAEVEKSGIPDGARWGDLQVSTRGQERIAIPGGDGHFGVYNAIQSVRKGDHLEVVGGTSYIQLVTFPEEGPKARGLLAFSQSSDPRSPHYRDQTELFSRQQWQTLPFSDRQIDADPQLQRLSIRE
Chain of Cytochrome P450 2C9 (P11712 whole entry): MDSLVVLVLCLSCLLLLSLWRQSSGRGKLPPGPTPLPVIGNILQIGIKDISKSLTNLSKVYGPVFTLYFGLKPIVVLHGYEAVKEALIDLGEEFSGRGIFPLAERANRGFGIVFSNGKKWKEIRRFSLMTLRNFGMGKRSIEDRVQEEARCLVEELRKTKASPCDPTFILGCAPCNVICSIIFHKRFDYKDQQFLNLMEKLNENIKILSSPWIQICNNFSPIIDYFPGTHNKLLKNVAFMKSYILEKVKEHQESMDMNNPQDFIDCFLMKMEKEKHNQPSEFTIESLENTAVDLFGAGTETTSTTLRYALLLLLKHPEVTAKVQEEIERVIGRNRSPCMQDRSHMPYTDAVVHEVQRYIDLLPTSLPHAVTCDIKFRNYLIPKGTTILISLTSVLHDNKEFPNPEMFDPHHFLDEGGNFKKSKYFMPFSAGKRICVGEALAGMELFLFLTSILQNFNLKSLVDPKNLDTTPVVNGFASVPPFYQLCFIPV
Chain of Procathepsin L (P07711 whole entry): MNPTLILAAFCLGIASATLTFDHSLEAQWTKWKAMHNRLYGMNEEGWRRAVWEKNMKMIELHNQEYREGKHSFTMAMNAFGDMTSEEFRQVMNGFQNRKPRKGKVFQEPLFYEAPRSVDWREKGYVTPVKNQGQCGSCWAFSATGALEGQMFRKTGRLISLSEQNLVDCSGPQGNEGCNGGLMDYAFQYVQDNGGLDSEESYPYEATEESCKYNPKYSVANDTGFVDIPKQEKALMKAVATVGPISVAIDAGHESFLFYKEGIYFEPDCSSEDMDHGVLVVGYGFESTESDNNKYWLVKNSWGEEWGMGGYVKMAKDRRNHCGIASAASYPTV
Chain of DNA dC->dU-editing enzyme APOBEC-3G (Q9HC16 whole entry): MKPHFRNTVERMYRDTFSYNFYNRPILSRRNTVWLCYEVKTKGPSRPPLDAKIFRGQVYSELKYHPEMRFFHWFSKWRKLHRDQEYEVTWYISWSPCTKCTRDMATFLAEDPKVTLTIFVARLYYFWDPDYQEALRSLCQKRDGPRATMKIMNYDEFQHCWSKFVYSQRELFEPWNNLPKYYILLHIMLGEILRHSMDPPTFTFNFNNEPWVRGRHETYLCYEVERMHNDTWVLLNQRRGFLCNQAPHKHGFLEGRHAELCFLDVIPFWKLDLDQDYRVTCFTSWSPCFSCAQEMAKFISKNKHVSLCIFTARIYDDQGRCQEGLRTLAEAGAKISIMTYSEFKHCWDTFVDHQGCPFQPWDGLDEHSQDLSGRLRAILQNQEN
Chain of DNA dC->dU-editing enzyme APOBEC-3A (P31941 whole entry): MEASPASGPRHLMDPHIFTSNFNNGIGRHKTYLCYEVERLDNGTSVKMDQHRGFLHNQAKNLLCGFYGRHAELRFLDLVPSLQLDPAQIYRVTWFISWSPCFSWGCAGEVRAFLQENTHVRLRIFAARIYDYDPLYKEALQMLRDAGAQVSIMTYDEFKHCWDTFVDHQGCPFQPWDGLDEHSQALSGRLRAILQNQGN
Chain of Neurotensin receptor type 1 (P30989 whole entry): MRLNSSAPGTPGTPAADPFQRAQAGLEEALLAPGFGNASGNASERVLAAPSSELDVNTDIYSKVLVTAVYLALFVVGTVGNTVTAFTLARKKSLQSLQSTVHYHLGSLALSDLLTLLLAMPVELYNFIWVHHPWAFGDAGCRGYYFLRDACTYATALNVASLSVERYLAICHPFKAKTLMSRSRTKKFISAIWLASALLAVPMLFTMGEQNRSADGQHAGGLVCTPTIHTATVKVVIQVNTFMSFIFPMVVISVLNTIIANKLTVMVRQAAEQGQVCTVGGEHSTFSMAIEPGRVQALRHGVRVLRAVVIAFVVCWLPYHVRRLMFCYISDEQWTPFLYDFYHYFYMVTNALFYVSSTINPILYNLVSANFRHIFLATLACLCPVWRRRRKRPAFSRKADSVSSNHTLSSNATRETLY

**Q.** With `Cc1cc(C)nc(N(C#N)Cc2ccc(Cl)cc2)n1` as the compound, how does the AC50 [1] read?
**A.** 21.9 µM (active)

**Q.** Which EC50 [2] does the source give for `CCCCn1c(SCC(=O)N2CCC(C)CC2)nc2cc(S(N)(=O)=O)ccc21` here?
**A.** 20.7 µM (inactive)

**Q.** Which IC50 [3] does the source give for `COc1ccc(-c2nc3n(n2)C(c2cccnc2)C(C(N)=O)=C(C)N3)cc1` (centres undefined) here?
**A.** > 100 µM (inactive)

**Q.** With `COc1cc(C(=O)N2CCN(c3ccccn3)CC2)cc(OC)c1OC` as the compound, how does the AC50 [4] read?
**A.** 2.75 µM (active)

**Q.** Which IC50 [5] does the source give for `O=C(CSc1nnc[nH]1)OCN1C(=O)c2ccccc2C1=O` here?
**A.** > 59.6 µM (not active)

**Q.** What about the IC50 [6] of the same compound?
**A.** 64.4 µM (active)

**Q.** What about the IC50 [7] of the same compound?
**A.** 0.35 µM (active)

**Q.** What does the source list for `Cc1ccc[n+](-c2nc([O-])sc2C=NNc2ccc([N+](=O)[O-])cc2)c1`?
**A.** IC50 [8]: 10.1 µM (not active); IC50 [9]: 3.96 µM (active); IC50 [10]: 33.3 µM (inactive); IC50 [11]: > 66 µM (inactive)

**Q.** With `COc1cc2c(C#N)c(N3CCN(C)CC3)nc(N)c2c(N)n1` as the compound, how does the IC50 [3] read?
**A.** > 100 µM (inactive)

**Q.** And the AC50 [12]?
**A.** 28.9 µM (active)

**Q.** Which EC50 [13] does the source give for `COc1nnc(-c2ccc(N3CCOCC3)c(NC(=O)c3ccc(C)cc3)c2)c2ccccc12` here?
**A.** > 50 µM (active)

**Q.** Which AC50 [1] does the source give for `Cc1cc(C)nc(N(C#N)Cc2ccccc2)n1` here?
**A.** 9.18 µM (active)

**Q.** Which AC50 [14] does the source give for `NCCC[C@@H](CC(=O)N[C@@H]1CCCC[C@H]1C(=O)N[C@H](CC(=O)N[C@@H](CCC(=O)O)CC(=O)O)Cc1ccccc1)NC(=O)C[C@H](CO)NC(=O)[C@@H]1CCCC[C@H]1N` here?
**A.** 39.8 µM (inconclusive)

**Q.** Which EC50 [13] does the source give for `Cc1ccc(NC2=NCCCS2)cc1Cl` here?
**A.** > 50 µM (active)

**Q.** What does the source list for `CCN1C(NCCOC)=N[C@@H](c2cccc(F)c2)C(C(=O)OC)=C1C`?
**A.** IC50 [15]: 5.2 µM (active); IC50 [16]: > 100 µM (inactive); IC50 [17]: 12.8 µM (active); IC50 [18]: 3.86 µM (active)

**Q.** What does the source list for `CCOC(=O)NC(=O)COC(=O)c1ccc(Sc2nnc[nH]2)c([N+](=O)[O-])c1`?
**A.** IC50 [5]: > 59.6 µM (not active); IC50 [7]: 0.609 µM (active)

**Q.** With `CN1CCN(c2ncc3nc(-c4cccc(C#N)c4)c(=O)n(C[C@H]4CCCO4)c3n2)CC1` as the compound, how does the AC50 [14] read?
**A.** 25.1 µM (inconclusive)

**Q.** Which AC50 [4] does the source give for `NC(=O)c1cc([N+](=O)[O-])c(Cl)cc1NCc1cccnc1` here?
**A.** 14.3 µM (active)

**Q.** For `COc1ccc(/C=N/c2c(-c3ccco3)nc3ccccn23)cc1OC`, which CC50 [19] is on record?
**A.** > 40 µM (active)

**Q.** And the IC50 [8]?
**A.** 56.1 µM (not active)

**Q.** What about the IC50 [9] of the same compound?
**A.** 3.71 µM (active)

**Q.** What about the IC50 [20] of the same compound?
**A.** 8.15 µM (inconclusive)
